Laboratory results: patent US7846708B2, “Method for increasing the survival of bacterial strains of the Rhizobium genus” (Consiglo Nazionale delle Richerch, priority 2005, dated 2010)

Legend:
[1] = tested on: Sinorhizobium meliloti strain 1021 cells; test: Cell resistance of Sinorhizobium meliloti cells to various stress conditions (colony counting after stress); format: cell-based
Method: (§1) The number of colonies of not treated Sinorhizobium meliloti 1021 was compared to the one of the same strain treated with IAA (0.05 mM and 0.5 mM) two days after reaching the stationary phase of bacterial growth. The percentage value of the surviving cells was measured several days after treatment. Applied stresses were: pH 3 (acid stress): cells were incubated for 30 minutes and then plated; NaCl 0.5 M (high osmotic pressure): 3 hours incubation; UV light resistance: time was not determined but the UV dose was selected to reach an irradiation dosage of 100 J/m^2; treatment at high temperature 55° C.: cells were incubated for 5 minutes; treatment at low temperature (4° C.) cells were incubated for up to 60 days at 4° C.
The author has assayed for the bacteria resistance to stresses such as low and high temperatures. For the resistance to high temperatures the cells were grown in exponential phase (optical density 0.6) and then incubated for 2 minutes at room temperature or at 55° C. and then plated.
Sinorhizobium meliloti strain 1021 cells and its derivative RD64 overproducing IAA, were exposed to different stress conditions and the number of surviving cells counted by plating opportune dilutions on agar plates; after plates incubation at 30° C., the number of emerging colonies were counted (Table 1).
As a control untreated cells were plated and the number of colonies was considered as 100% for that condition. Stress applied were: • 1) low pH, pH 3, treatment: 30 minutes; • 2) high osmotic pressure (0.5 M NaCl): 3 hours; • 3) UV irradiation were automatically set at 100 J/m^2 and cells were irradiate for less that 1 minute; • 4) High (55° C.) temperature treatment: 5 minutes. Results A) Expression of the Beta-glucuronidase Modulated by the Mutation in the Promoter-iaaMtms2 Sequence

[2] = tested on: Sinorhizobium meliloti 1021; test: Effect of dehydration on survival (vacuum-dried cells plated at increasing times); format: cell-based
Method: A culture of the wild strain S. meliloti 1021, of the strain 64 and 66 were kept in growth stationary phase for three days, then they were dehydrated […] and plated at the various times shown in figure. Furthermore, a culture of the wild strain 1021 was subjected to analogous treatment, thereto 0.05 mM IAA were added after two days of growing in stationary phase, the stationary growth continued for a third day and then the bacteria were dehydrated and processed like the preceding samples.
For the dehydration test (FIG. 8), the cells were grown until reaching the stationary phase and kept for 3 days in stationary phase. The cells were centrifuged at 4000 rpm for 15′, washed in water and counted on plates as live colonies. The cells were then diluted so as to be aliquoted in Eppendorf tubes at the concentration of 1:10000 for each sample and then vacuum-dried in Savant centrifuge. After 4, 8, 14 and 32 days, the aliquots were plated on TYR selective medium, the formed colonies were counted on at least three plates and the experiment was repeated at least three times.

S. meliloti 1021 = test: Survival at low temperature (4° C.), colony counting; format: cell-based, Sinorhizobium meliloti; conditions: 0.5 mM IAA; after 45 and 60 days at 4° C.; FIG. 9
Method: FIG. 9: Survival at 4° C. of wild type S. meliloti 1021 treated with IAA and of the strain RD64. The bacterial cells of the three analysed strains (wild type S.m. 1021, S.m. treated with 0.5 mM IAA and RD64) were grown until exponential phase, then plated and the plates were incubated at 4° C. for 15, 30, 45 and 60 days. Every 15 days, a plate group of each strain was transferred to 30° C. for one day and the colonies were counted.
Furthermore, the author has assayed for the ability of the same strains to resist to prolonged incubations at low temperature (4° C.). The cells of the same three strains: Sm 1021, Sm 1021 treated with 0.5 mM IAA and the strain RD64, were grown until an optical density of 0.6, plated and incubated at 4° C. for periods of time variable up to two months.

[3] = tested on: Sinorhizobium meliloti 1021; test: Growth and survival test in liquid minimal medium (colonies on agar plates after prolonged stationary phase); format: cell-based; conditions: for ability to generate colonies with respect to the reference strain (1021): FIG. 6; for increase of the ability to generate colonies: FIG. 7, 7 and 15 days after IAA addition
Method: For the growth and survival tests the minimal medium was utilized. A culture of the various strains was kept in growth stationary phase for two days, then they were collected, properly diluted and plated at the various recommended periods of time so as to obtain about 100-1000 colonies per plate. For the strains to be treated with IAA, the addition (0.05 or 0.5 mM IAA) occurred after two days of growth in stationary phase, then the bacteria were diluted and plated.
The author has evaluated the ability of S. meliloti 1021 to generate colonies on agar plates after prolonged incubation in growth medium. The formed colonies were counted on at least five plates and the experiment was repeated at least five times.
as §1
In fact, the following groups were compared: • Sm 1021; • Sm 1021 additioned with 0.5 mM IAA; • Sm 1021 additioned with 0.05 mM IAA; • Sm 1021 containing the wild promoter-iaaMtms2 construct (RD 64) • Sm 1021 containing the promoter-iaaMtms2 construct mutated in the −16/−14 GAC region (RD65); • Sm 1021 containing the promoter-iaaMtms2 construct mutated in the −48, 49, 51, 52 G region (RD66); • Sm 1021 containing the promoter-iaaMtms2 construct mutated in the −40-37 CCCC (RD67); b) Effect of Various IAA Concentrations on the Survival of Sinorhizobium Meliloti 1021
In order to evaluate the effect of different IAA concentrations on the survival of Sinorhizobium meliloti 1021 the number of colonies generated on agar plates were evaluated (see FIG. 7). The utilized concentrations were 0.05; 0.2; 0.5; and 2 mM IAA. The inocula of the wild strain not treated with IAA were used as controls as well as the RD64 strain. The number of colonies of S.m. 1021 was arbitrarily set equal to 100%. The number of colonies generated after 7 and 15 days of growth after the IAA addition in the growth liquid medium was evaluated.

O=C(O)Cc1c[nH]c2ccccc12 [IAA, indole-3-acetic acid]
Survival (%), Osmotic shock (+0.5 M NaCl) ([1]; 0.5 M NaCl, 3 hours, unstressed cells = 100%, IAA added at 0.5 mM to 1021, strain 64 without addition): 78 ± 1% | Survival (%), Heat-shock (55° C.) ([1]; 55° C., 5 minutes, unstressed cells = 100%, IAA added at 0.5 mM to 1021, strain 64 without addition): 0.196 ± 0.021% | more resistant than the untreated 1021, high temperature ([1]; 55° C., relative to untreated 1021): 10% | Survival (%), UV-irradiation (100 J/m^2) ([1]; 100 J/m^2, unstressed cells = 100%, IAA added at 0.5 mM to 1021, strain 64 without addition): 86 ± 1% | more resistant than the untreated 1021, intense UV irradiation ([1]; UV irradiation, relative to untreated 1021): 10% | colonies generated more than the control after heat shock ([1]; heat shock, IAA at 0.05 mM as printed, relative to S.m. 1021): up to 20% | more resistant than the untreated 1021, high osmotic solution ([1]; high osmotic solution, relative to untreated 1021): 50% | more resistant than the untreated 1021, very low pH ([1]; pH3, 30 minutes, relative to untreated 1021): 100% | Survival (%), Acid shock (pH 3.0) ([1]; pH 3, 30 minutes, unstressed cells = 100%, IAA added at 0.5 mM to 1021, strain 64 without addition): 0.0023 ± 0.0006% | increase of the survival of the bacterial cells under dehydration ([2]; IAA at 0.05 mM, FIG. 8): up to 50% | additional increase in the cellular survival of pelleted, dehydrated and plated cells ([2]; IAA purified at 0.05 mM, after two weeks): up to 40% | number of cells able to generate colonies after incubation at 4° C. with respect to the not treated strain (S. meliloti 1021): almost the double | ability to generate colonies with respect to the reference strain (1021) ([3]; 0.05 mM IAA added after two days in stationary phase): greater ability to generate colonies | increase of the ability to generate colonies ([3]; 0.2 mM IAA): effective to increase the ability to generate colonies | ability to generate colonies with respect to the reference strain (1021) ([3]; 0.5 mM IAA added after two days in stationary phase): greater ability to generate colonies | increase of the ability to generate colonies ([3]; 0.5 mM IAA): effective to increase the ability to generate colonies | total increase in the number of live cells in liquid culture with respect to the wild strain ([3]; purified IAA at 0.5 mM, after two growth weeks): at least 100%
